# Data taken from patent US20240024488A1, “COMPOUNDS AND USES THEREOF” (Foghorn Therapeutics Inc., priority 2020, published 2024).
# Key:
# HiBit-BRM fusion protein = biological target: T1, HiBit-BRM fusion protein (Homo sapiens, UniProt P51531); test: HiBiT-BRM cell-based degradation assay (Nano-Glo HiBiT Lytic Detection, 24 h); conditions: HeLa cell line expressing HiBiT-BRM; for DC50: read-out: BRM HiBit Degradation IC50
# T1 construct: expressed in transfected cells
# In short: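 Percent BRM loss was derived from HiBiT luminescence relative to DMSO-treated cells and cells given 2 μM of a known BRM/BRG1 degrader. Treatment lasted 24 h in HiBiT-BRM HeLa cells, with a top final concentration of 30 μM.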
# [1] = biological target: T2, HiBit-BRG1 fusion protein (Homo sapiens, UniProt P51532); test: HiBiT-BRG1 cell-based degradation assay (Nano-Glo HiBiT Lytic Detection, 24 h); conditions: HeLa cell line expressing HiBit-BRG1 and LgBit; for Dmax: read-out: BRG1 HiBit Degradation Maximum (%); for DC50: read-out: BRMG1 HiBit Degradation IC50
# T2 construct: expressed in transfected cells
# T2 sequence (P51532 whole entry, the tested form may be a part): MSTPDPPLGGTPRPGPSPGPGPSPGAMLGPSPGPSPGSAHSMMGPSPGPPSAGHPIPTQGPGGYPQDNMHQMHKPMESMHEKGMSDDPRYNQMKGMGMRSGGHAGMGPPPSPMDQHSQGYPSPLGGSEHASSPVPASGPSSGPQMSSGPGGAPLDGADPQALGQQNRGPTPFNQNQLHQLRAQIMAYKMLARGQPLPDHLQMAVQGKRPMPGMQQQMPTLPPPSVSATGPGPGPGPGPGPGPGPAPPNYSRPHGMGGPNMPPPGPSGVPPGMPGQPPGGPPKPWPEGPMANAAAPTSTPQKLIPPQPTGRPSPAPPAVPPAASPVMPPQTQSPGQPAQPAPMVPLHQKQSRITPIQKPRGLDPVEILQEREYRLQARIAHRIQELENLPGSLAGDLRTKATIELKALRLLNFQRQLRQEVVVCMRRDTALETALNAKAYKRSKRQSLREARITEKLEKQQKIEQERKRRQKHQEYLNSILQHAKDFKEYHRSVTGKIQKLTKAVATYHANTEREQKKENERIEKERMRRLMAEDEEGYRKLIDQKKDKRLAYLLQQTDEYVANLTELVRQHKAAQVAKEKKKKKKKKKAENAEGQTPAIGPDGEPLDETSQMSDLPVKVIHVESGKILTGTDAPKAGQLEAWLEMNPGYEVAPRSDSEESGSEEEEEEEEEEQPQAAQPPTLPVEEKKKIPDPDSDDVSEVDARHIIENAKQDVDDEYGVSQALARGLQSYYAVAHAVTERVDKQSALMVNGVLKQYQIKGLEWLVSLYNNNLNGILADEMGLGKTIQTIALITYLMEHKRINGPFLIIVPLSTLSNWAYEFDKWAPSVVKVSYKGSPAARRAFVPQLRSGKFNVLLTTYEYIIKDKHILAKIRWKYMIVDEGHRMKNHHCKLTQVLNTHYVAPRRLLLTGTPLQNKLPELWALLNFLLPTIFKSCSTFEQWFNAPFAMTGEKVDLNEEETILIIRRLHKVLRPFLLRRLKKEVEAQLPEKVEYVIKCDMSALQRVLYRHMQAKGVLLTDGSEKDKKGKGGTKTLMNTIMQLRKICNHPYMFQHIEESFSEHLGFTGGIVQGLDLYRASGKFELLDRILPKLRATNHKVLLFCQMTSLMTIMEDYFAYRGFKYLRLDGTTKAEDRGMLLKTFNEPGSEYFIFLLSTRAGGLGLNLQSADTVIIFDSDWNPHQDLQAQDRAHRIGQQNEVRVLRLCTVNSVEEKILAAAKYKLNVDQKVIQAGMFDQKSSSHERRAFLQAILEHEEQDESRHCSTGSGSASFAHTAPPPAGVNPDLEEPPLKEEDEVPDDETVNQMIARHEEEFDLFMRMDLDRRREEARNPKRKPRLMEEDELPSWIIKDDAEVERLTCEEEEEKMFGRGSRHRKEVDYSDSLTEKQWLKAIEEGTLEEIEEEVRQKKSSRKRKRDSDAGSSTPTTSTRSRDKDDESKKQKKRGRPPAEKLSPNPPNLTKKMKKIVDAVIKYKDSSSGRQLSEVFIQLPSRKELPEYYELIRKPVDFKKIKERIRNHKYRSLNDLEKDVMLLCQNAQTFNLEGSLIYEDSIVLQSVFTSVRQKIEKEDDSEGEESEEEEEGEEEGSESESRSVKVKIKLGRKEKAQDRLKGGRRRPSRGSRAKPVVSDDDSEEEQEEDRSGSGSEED
# In short: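 HeLa cells stably expressing HiBit-BRG1 plus LgBit; compound exposure 24 h; Nano-Glo HiBiT lytic luminescence; % degradation vs DMSO (0%) and 2 μM standard BRM/BRG1 degrader (100%).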
# T1 sequence (P51531 whole entry, the tested form may be a part): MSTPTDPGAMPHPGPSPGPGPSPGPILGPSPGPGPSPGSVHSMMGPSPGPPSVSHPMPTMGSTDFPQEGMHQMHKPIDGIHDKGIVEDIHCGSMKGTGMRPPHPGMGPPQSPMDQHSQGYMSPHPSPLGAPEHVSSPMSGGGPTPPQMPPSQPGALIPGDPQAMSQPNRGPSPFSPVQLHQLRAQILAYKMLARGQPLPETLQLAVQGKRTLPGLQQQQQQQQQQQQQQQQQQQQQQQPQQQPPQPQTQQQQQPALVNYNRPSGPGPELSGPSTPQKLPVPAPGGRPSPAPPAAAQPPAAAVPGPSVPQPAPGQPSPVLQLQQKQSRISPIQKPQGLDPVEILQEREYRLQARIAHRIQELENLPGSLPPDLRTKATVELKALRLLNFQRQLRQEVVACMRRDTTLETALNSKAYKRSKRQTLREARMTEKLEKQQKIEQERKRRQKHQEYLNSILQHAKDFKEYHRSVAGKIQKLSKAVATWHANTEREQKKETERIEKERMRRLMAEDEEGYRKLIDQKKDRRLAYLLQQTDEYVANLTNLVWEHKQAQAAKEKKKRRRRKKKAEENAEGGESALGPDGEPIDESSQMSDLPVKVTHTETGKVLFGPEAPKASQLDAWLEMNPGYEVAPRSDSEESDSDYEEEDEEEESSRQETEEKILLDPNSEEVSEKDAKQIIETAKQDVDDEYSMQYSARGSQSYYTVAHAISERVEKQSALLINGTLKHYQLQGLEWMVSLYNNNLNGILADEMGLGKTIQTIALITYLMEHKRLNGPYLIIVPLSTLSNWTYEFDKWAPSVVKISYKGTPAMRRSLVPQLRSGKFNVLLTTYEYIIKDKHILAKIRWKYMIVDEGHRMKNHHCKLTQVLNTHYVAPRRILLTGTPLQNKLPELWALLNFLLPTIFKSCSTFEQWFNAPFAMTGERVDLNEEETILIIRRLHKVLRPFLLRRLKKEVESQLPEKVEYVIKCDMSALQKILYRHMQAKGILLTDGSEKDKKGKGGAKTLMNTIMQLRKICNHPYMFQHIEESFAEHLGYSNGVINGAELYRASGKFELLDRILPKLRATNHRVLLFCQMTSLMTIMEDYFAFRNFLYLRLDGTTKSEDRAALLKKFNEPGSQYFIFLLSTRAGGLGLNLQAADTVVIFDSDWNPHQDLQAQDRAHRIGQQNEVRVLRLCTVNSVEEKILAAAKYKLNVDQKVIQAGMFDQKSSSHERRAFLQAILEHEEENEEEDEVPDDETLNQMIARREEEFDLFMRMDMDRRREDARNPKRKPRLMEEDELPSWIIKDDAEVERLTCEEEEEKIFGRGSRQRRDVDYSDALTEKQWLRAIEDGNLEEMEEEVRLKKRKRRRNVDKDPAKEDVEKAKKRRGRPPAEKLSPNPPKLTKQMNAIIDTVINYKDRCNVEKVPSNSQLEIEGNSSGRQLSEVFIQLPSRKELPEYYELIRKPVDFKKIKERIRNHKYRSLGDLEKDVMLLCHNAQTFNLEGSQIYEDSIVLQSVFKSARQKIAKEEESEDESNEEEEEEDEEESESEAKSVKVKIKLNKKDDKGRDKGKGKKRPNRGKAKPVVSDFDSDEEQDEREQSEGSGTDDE
Compound,BRM HiBit Degradation Maximum (%) (HiBit-BRM fusion protein),DC50 (HiBit-BRM fusion protein) [nM],Dmax [1] [%],DC50 [1] [nM]
"Cc1ncsc1-c1ccc([C@H](C)NC(=O)[C@@H]2C[C@@H](O)CN2C(=O)[C@@H](c2cc(N3CCC(N4CC(c5cc6cc(-c7ccccc7O)nnc6[nH]5)C4)CC3)no2)C(C)C)cc1 (racemic) [Compound 248, (2S,4R)-4-hydroxy-1-((R)-2-(3-(4-(3-(3-(2-hydroxyphenyl)-7H-pyrrolo[2,3-c]pyridazin-6-yl)azetidin-1-yl)piperidin-1-yl)isoxazol-5-yl)-3-methylbutanoyl)-N-((S)-1-(4-(4-methylthiazol-5-yl)phenyl)ethyl)pyrrolidine-2-carboxamide]",A (“A” indicates maximum degradation ≥ 75%),> 10,> 50,> 100
"Cc1ncsc1-c1ccc([C@H](C)NC(=O)[C@@H]2C[C@@H](O)CN2C(=O)[C@@H](c2cc(OCCN3CC(C)(c4cc5cc(-c6ccccc6O)nnc5[nH]4)C3)no2)C(C)C)cc1 (racemic) [Compound 275, (2S,4R)-4-hydroxy-1-((R)-2-(3-(2-(3-(3-(2-hydroxyphenyl)-7H-pyrrolo[2,3-c]pyridazin-6-yl)-3-methylazetidin-1-yl)ethoxy)isoxazol-5-yl)-3-methylbutanoyl)-N-((S)-1-(4-(4-methylthiazol-5-yl)phenyl)ethyl)pyrrolidine-2-carboxamide]",A (“A” indicates maximum degradation ≥ 75%),> 10,< 50,–
"Cc1ncsc1-c1ccc([C@H](C)NC(=O)[C@@H]2C[C@@H](O)CN2C(=O)[C@@H](c2cc(OCCNC(=O)[C@@H]3CCc4[nH]c5nnc(-c6ccccc6O)cc5c4C3)no2)C(C)C)cc1 (single isomer, unassigned) [Compound 172]",A (“A” indicates maximum degradation ≥ 75%),> 10,< 50,–
"Cc1ncsc1-c1ccc([C@H](C)NC(=O)[C@@H]2C[C@@H](O)CN2C(=O)[C@@H](c2cc(OCCN3CCC[C@@H]3c3cc4cc(-c5ccccc5O)nnc4[nH]3)no2)C(C)C)cc1 (racemic) [Compound 261, (2S,4R)-4-hydroxy-1-((R)-2-(3-(2-((R)-2-(3-(2-hydroxyphenyl)-7H-pyrrolo[2,3-c]pyridazin-6-yl)pyrrolidin-1-yl)ethoxy)isoxazol-5-yl)-3-methylbutanoyl)-N-((S)-1-(4-(4-methylthiazol-5-yl)phenyl)ethyl)pyrrolidine-2-carboxamide]",C (“C” indicates maximum degradation < 50%),–,< 50,–
"Cc1ncsc1-c1ccc([C@H](C)NC(=O)[C@@H]2C[C@@H](O)CN2C(=O)[C@@H](c2cc(N3CCC(CN4CCc5[nH]c6nnc(-c7ccccc7O)cc6c5[C@@H]4C)CC3)no2)C(C)C)cc1 (racemic) [Compound 83, (2S,4R)-4-hydroxy-1-[(2R)-2-[3-(4-{[(3S)-12-(2-hydroxyphenyl)-3-methyl-4,8,10,11-tetraazatricyclo[7.4.0.0^{2,7}]trideca-1(13),2(7),9,11-tetraen-4-yl]methyl}piperidin-1-yl)-1,2-oxazol-5-yl]-3-methylbutanoyl]-N-[(1S)-1-[4-(4-methyl-1,3-thiazol-5-yl)phenyl]ethyl]pyrrolidine-2-carboxamide]",A (“A” indicates maximum degradation ≥ 75%),> 10,> 75,> 10
"Cc1ncsc1-c1ccc([C@H](C)NC(=O)[C@@H]2C[C@@H](O)CN2C(=O)[C@@H](c2cc(OCCN3CC(c4[nH]c5nnc(-c6ccccc6O)cc5c4F)C3)no2)C(C)C)cc1 (racemic) [Compound 121, (2S,4R)-1-[(2R)-2-[3-(2-{3-[5-fluoro-3-(2-hydroxyphenyl)-7H-pyrrolo[2,3-c]pyridazin-6-yl]azetidin-1-yl}ethoxy)-1,2-oxazol-5-yl]-3-methylbutanoyl]-4-hydroxy-N-[(1S)-1-[4-(4-methyl-1,3-thiazol-5-yl)phenyl]ethyl]pyrrolidine-2-carboxamide]",A (“A” indicates maximum degradation ≥ 75%),> 100,< 50,–
"Cc1ncsc1-c1ccc([C@H](C)NC(=O)[C@@H]2C[C@@H](O)CN2C(=O)[C@@H](c2cc(N3CCC(C(=O)N4CCc5[nH]c6nnc(-c7ccccc7O)cc6c5[C@H]4C)CC3)no2)C(C)C)cc1 (racemic) [Compound 82, (2S,4R)-4-hydroxy-1-((R)-2-(3-(4-((R)-3-(2-hydroxyphenyl)-5-methyl-6,7,8,9-tetrahydro-5H-pyrido[3′,4′:4,5]pyrrolo[2,3-c]pyridazine-6-carbonyl)piperidin-1-yl)isoxazol-5-yl)-3-methylbutanoyl)-N-((S)-1-(4-(4-methylthiazol-5-yl)phenyl)ethyl)pyrrolidine-2-carboxamide]",A (“A” indicates maximum degradation ≥ 75%),< 10,> 75,> 100
"Cc1ncsc1-c1ccc(CNC(=O)[C@@H]2C[C@@H](O)CN2C(=O)[C@@H](NC(=O)CNC(=O)[C@H]2CCc3[nH]c4nnc(-c5ccccc5O)cc4c3C2)C(C)(C)C)cc1 (single isomer, unassigned) [Compound 191]",C (“C” indicates maximum degradation < 50%),–,< 50,–
"Cc1ncsc1-c1ccc([C@H](C)NC(=O)[C@@H]2C[C@@H](O)CN2C(=O)[C@@H](c2cc(OCCN3CC(c4cc5cc(-c6ccccc6O)nnc5[nH]4)C3)no2)C(C)C)cn1 (single isomer, unassigned) [Compound 219]",A (“A” indicates maximum degradation ≥ 75%),> 100,< 50,–
"Cc1ncsc1-c1ccc(CNC(=O)[C@@H]2C[C@@H](O)CN2C(=O)[C@@H](NC(=O)CCCC(=O)NC23CC(c4cc5cc(-c6ccccc6O)nnc5[nH]4)(C2)C3)C(C)(C)C)cc1 (racemic) [Compound 301, N1-((S)-1-((2S,4R)-4-hydroxy-2-((4-(4-methylthiazol-5-yl)benzyl)carbamoyl)pyrrolidin-1-yl)-3,3-dimethyl-1-oxobutan-2-yl)-N5-(3-(3-(2-hydroxyphenyl)-7H-pyrrolo[2,3-c]pyridazin-6-yl)bicyclo[1.1.1]pentan-1-yl)glutaramide]",B (“B” indicates maximum degradation ≥ 50%),> 1000,< 50,–
"Cc1ncsc1-c1ccc([C@H](C)NC(=O)[C@@H]2C[C@@H](O)CN2C(=O)[C@@H](c2cc(OCCN3CC[C@H](c4c(C)[nH]c5nnc(-c6ccccc6O)cc45)C3)no2)C(C)C)cc1 (single isomer, unassigned) [Compound 241]",B (“B” indicates maximum degradation ≥ 50%),> 10,< 50,–
"Cc1ncsc1-c1ccc([C@H](C)NC(=O)[C@@H]2C[C@@H](O)CN2C(=O)[C@@H](c2cc(OCCN3CCC4(CC3)CC(c3cc5cc(-c6ccccc6O)nnc5[nH]3)C4)no2)C(C)C)cc1 (racemic) [Compound 290, (2S,4R)-4-hydroxy-1-((R)-2-(3-(2-(2-(3-(2-hydroxyphenyl)-7H-pyrrolo[2,3-c]pyridazin-6-yl)-7-azaspiro[3.5]nonan-7-yl)ethoxy)isoxazol-5-yl)-3-methylbutanoyl)-N-((S)-1-(4-(4-methylthiazol-5-yl)phenyl)ethyl)pyrrolidine-2-carboxamide]",A (“A” indicates maximum degradation ≥ 75%),> 10,> 50,> 100
"Cc1ncsc1-c1ccc([C@H](C)NC(=O)[C@@H]2C[C@@H](O)CN2C(=O)[C@@H](c2cc(N3C[C@@H]4C[C@H]3CN4C(=O)[C@@H]3CCc4[nH]c5nnc(-c6ccccc6O)cc5c4C3)no2)C(C)C)cc1 (single isomer, unassigned) [Compound 102]",A (“A” indicates maximum degradation ≥ 75%),–,< 50,–
"Cc1ncsc1-c1ccc([C@H](C)NC(=O)[C@@H]2C[C@@H](O)CN2C(=O)C(c2cc(N3CCC(C(=O)N4CCc5[nH]c6nnc(-c7ccccc7O)cc6c5C4)CC3)no2)C(C)C)cc1 (mixture of isomers) [Compound 205, (2S,4R)-4-hydroxy-1-((R)-2-(3-(4-(3-(2-hydroxyphenyl)-6,7,8,9-tetrahydro-5H-pyrido[3′,4′:4,5]pyrrolo[2,3-c]pyridazine-6-carbonyl)piperidin-1-yl)isoxazol-5-yl)-3-methylbutanoyl)-N-((S)-1-(4-(4-methylthiazol-5-yl)phenyl)ethyl)pyrrolidine-2-carboxamide]",C (“C” indicates maximum degradation < 50%),–,< 50,–
"Cc1ncsc1-c1ccc([C@H](C)NC(=O)[C@@H]2C[C@@H](O)CN2C(=O)[C@H](c2cc(C3CCN(C(=O)c4cc5cc(-c6ccccc6O)nnc5[nH]4)CC3)no2)C(C)C)cc1 (single isomer, unassigned) [Compound 201]",C (“C” indicates maximum degradation < 50%),–,< 50,–
"Cc1ncsc1-c1ccc([C@H](C)NC(=O)[C@@H]2C[C@@H](O)CN2C(=O)[C@@H](c2cc(OCCN3CCC34CC(c3c[nH]c5nnc(-c6ccccc6O)cc35)C4)no2)C(C)C)cc1 (mixture of isomers) [Compound 151, (2S,4R)-4-hydroxy-1-((R)-2-(3-(2-(6-(3-(2-hydroxyphenyl)-7H-pyrrolo[2,3-c]pyridazin-5-yl)-1-azaspiro[3.3]heptan-1-yl)ethoxy)isoxazol-5-yl)-3-methylbutanoyl)-N-((S)-1-(4-(4-methylthiazol-5-yl)phenyl)ethyl)pyrrolidine-2-carboxamide]",A (“A” indicates maximum degradation ≥ 75%),> 100,< 50,–
